{"source": "patent US8008316B2", "about": "“Azonafide derived tumor and cancer targeting compounds” (The United States of America as represented by the …, priority 2006, dated 2011)", "test_system": "Gastrin receptor-expressing rat pancreatic cells (NIH line AR42J)", "assay": "Viable cell count of AR42J cells after about five days of exposure", "type": "cell-based", "details": "for % Viable Cells: rat", "method": "The number of viable cells left in the culture after the five day period was measured, and compared to a control culture that was not exposed either compound. The number of cells remaining in each of the experimental cultures, expressed as a percentage of viable cells in the control culture, is provided in Table 4, below."}
{"smiles": "COc1ccc2c3c(c4ccccc4cc13)C(=O)N(CCN(C)CCN)C2=O", "note": "[MD117, 2-{2-[(2-aminoethyl)methylamino]ethyl}-6-methoxy-1,2-dihydro-3H-dibenzo[de,h]isoquinoline-1,3-dione]", "values": [{"measurement": "cell killing at the tested concentrations", "setting": "AR42J, 10, 50, 100 and 1000 nM, result in words", "result": "killing all cells in the culture at each of the tested concentrations"}, {"measurement": "CC50", "setting": "Rattus norvegicus, AR-42J, 120 h, read-out: LC50 (median concentration required for death of 50% of the cell population), AR42J, about five days, calculated from the data", "result": 3, "unit": "nM"}, {"measurement": "% Viable Cells", "setting": "0.01 µM", "result": "−100", "unit": "%"}, {"measurement": "% Viable Cells", "setting": "0.05 µM", "result": "−100", "unit": "%"}, {"measurement": "% Viable Cells", "setting": "0.1 µM", "result": "−100", "unit": "%"}, {"measurement": "% Viable Cells", "setting": "1 µM", "result": "−100", "unit": "%"}]}
